Here are results for one compound from patent US10851069B2, “Compositions of crystallized hydrophobic compounds and methods of making and using same” (Massachusetts Institute of Technology, priority 2016, dated 2020).

Holding throughout (format): in vivo
The test system of experiment [1] is host (mouse) alpha smooth muscle actin (αSMact). The experiment is described as follows: qPCR of explanted capsules, host fibrosis marker. The settings on record: explanted at approximately 430 (amorphous) or 460 (crystalline) days post-transplant. The source says:
Total RNA was isolated from fibrosed spheres (with adhered tissue and immune overgrowth, if present), liquid nitrogen snap-frozen immediately following excision, using TRIzol (Invitrogen, Carlsbad, Calif.) according to the manufacturer's instructions. In addition, to help ensure complete tissue disruption, we also employed strong mechanical disruption with a Polytron homogenizer. Thus, gene expression signatures shown throughout are proportional and representative of the entire cell population present on and/or around retrieved materials. […] Mouse (5′-[…]-3′ (SEQ. ID. No.:1); reverse: 5′-CGGGTTCCGCTGTGTAAG-3′ (SEQ. ID. No.:2)) and rat (5′-CTCTCGTGCCATGTGAACC-3′ (SEQ. ID. No.:3); reverse: 5′-[…]-3′ (SEQ. ID. No.:4)) Pdx1 primers were designed using Primer Express software (Applied Biosystems, Carlsbad, Calif., USA) and evaluated using LaserGene software (DNAStar, Madison, Wis., USA) to ensure species rat (encapsulated islet) or mouse (host)-specificity, and normalized to mouse (5′-[…]-3′ (SEQ. ID. No.:5); reverse: 5′-[…]-3′ (SEQ. ID. No.:6)) and rat (5′-[…]-3′ (SEQ. ID. No.:7); reverse: 5′-[…]-3′ (SEQ. ID. No.:8)) Beta-actin, respectively. […] Results were analyzed using the comparative CT (ΔΔCT) method as described by the manufacturer. […]

The test system of experiment [2] is C57BL/6 mice. The experiment is described as follows: Anti-fibrotic screening of amorphous drug formulations in 500 μm alginate capsules, 2-week intraperitoneal implantation. As to conditions: conclusion; alginate hydrogel, ceramic, glass, PDMS and polystyrene beads. The source says:
For screening of anti-fibrotic drug activity, amorphous drug formulations were encapsulated inside 500 μm alginate capsules. Broad-spectrum anti-inflammatory agents curcumin, dexamethasone, and rapamycin have been used for preventing fibrosis of various biomaterials, such as polymer PLGA and hydrogel alginate. A panel of lead drug candidates (e.g., compounds of Formulae I-X) including the traditional broad-spectrum anti-inflammatories as well as agents targeted to essential macrophage biology pathways (e.g., TNFα, NFκB, p110δ/PI3K, TGFβ, and CSF1R) were selected. […] SLG20 alginate hydrogel spheres with these lead drug candidates were prepared as amorphous formulations to investigate the effect of macrophage immunomodulation on foreign body response. Drugs were encapsulated in amorphous form prepared by first dissolving in an organic solvent (e.g., vehicle in FIGS. 7, 9) then by mixing with alginate aqueous solution. Efficacy in preventing fibrosis was assessed in C57BL/6 mice at 2-weeks post implantation into the intraperitoneal (IP) cavity. Drug-containing spheres (500 μl/animal) were then implanted into the intraperitoneal space of C57BL/6 mice for 14 days. After this period, spheres were harvested and studied for cellular deposition and fibrosis.
All animal protocols were approved by the MIT Committee on Animal Care, and all surgical procedures and post-operative care was supervised by MIT Division of Comparative Medicine veterinary staff. Immune-competent male non-diabetic or STZ-induced diabetic C57BL/6 mice (Jackson Laboratory, Bar Harbor, Me.) were anesthetized with 3% isoflurane in oxygen and had their abdomens shaved and sterilized using betadine and isopropanol. Preoperatively, all mice also received a 0.05 mg/kg dose of buprenorphine subcutaneously as a pre-surgical analgesic, along with 0.3 mL of 0.9% saline subcutaneously to prevent dehydration. A […] incision was made along the midline of the abdomen and the peritoneal lining was exposed using blunt dissection. […]

The subject of experiment [3] is C57BL/6 mice. The experiment can be described thus: Crystalline drug-loaded alginate capsules, long-term IP/SC implantation, prevention of fibrosis. The settings on record: crystalline form in alginate capsules, retrieved after 1, 3 and 6 months from IP space. An excerpt: Lead compounds identified by screening the amorphous formulations (e.g., compounds of Formulae I-X, particularly LY215799, Dx, Curcumin, GW2580, QNZ and Ki20227) were studied for long-term release and prevention of fibrosis following encapsulation in crystalline form and implantation into the intraperitoneal (IP) space of C57BL/6 mice for long term testing. […] Drug extraction analysis by HPLC also determined that notable percentages (e.g., more than 50%) of the loaded drug remained within the retrieved capsules (FIG. 22D), particularly in the subcutaneous implanted samples. […] In contrast, capsules retrieved from the IP space 6 months post-implantation were identified with only 2-40% of the loaded drug remaining within the retrieved capsules.
All animal protocols were approved by the MIT Committee on Animal Care, and all surgical procedures and post-operative care was supervised by MIT Division of Comparative Medicine veterinary staff. Immune-competent male non-diabetic or STZ-induced diabetic C57BL/6 mice (Jackson Laboratory, Bar Harbor, Me.) were anesthetized with 3% isoflurane in oxygen and had their abdomens shaved and sterilized using betadine and isopropanol. Preoperatively, all mice also received a 0.05 mg/kg dose of buprenorphine subcutaneously as a pre-surgical analgesic, along with 0.3 mL of 0.9% saline subcutaneously to prevent dehydration. A […] incision was made along the midline of the abdomen and the peritoneal lining was exposed using blunt dissection. The peritoneal wall was then grasped with forceps and a 0.5-1 mm incision was made along the linea alba. A desired volume of spheres (all materials without islets, as well as SLG20 spheres encapsulating rat islets) were then loaded into a sterile pipette and implanted into the peritoneal cavity through the incision. The incision was then closed using 5-0 taper-tipped polydioxanone (PDS II) absorbable sutures. The skin was then closed over the incision using a wound clip and tissue glue.
At desired time points post-implantation or transplantation (with encapsulated islets), as specified in figures, mice were euthanized by CO2 administration, followed by cervical dislocation. In certain instances, 5 ml of ice cold PBS was first injected in order perform an intraperitoneal lavage to rinse out and collect free-floating intraperitoneal immune cells. An incision was then made using the forceps and scissors along the abdomen skin and peritoneal wall, and intraperitoneal lavage volumes were pipetted out into fresh 15 ml falcon tubes (each prepared with 5 ml of RPMI cell culture media). Next, a wash bottle tip was inserted into the abdominal cavity. KREBS buffer was then used to wash out all material spheres from the abdomen and into petri dishes for collection. After ensuring all the spheres were washed out or manually retrieved (if fibrosed directly to intraperitoneal tissues), they were transferred into 50 mL conical tubes for downstream processing and imaging. After intraperitoneal lavage and sphere retrieval, remaining fibrosed intraperitoneal tissues were also excised for downstream FACS and expression analyses.
For phase contrast imaging, retrieved materials were gently washed using Krebs buffer and transferred into 35 mm petri dishes for phase contrast microscopy using an Evos X1 microscope (Advanced Microscopy Group).
Immunofluorescence imaging was used to determine immune populations attached to spheres. […]

For the compound `COc1ccc(COc2ccc(Cc3cnc(N)nc3N)cc2OC)cc1` [GW2580, 5-[[3-Methoxy-4-[(4-methoxyphenyl)methoxy]phenyl]methyl]-2,4-pyrimidinediamine], the “lower αSMact expression, crystal versus amorphous capsules” value in experiment [1] came to 74%. Also, in the experiment on C57BL/6 mice [2], the “efficacy in inhibiting fibrosis of implanted biomaterial” value is on record as “demonstrated efficacy in inhibiting fibrosis”. Further, in the experiment on C57BL/6 mice [3], the “fibrosis by phase contrast imaging and confocal microscopy” value was “fibrosis free”.
